ChEMBL document CHEMBL5465560, “Selectivity Literature for EUbOPEN Chemogenomic Library” (2024)
Each block holds one compound with its values, some of them ahead of it.

Experiments:
[1] = target: Mast/stem cell growth factor receptor Kit (Homo sapiens, UniProt P10721); settings: at 10 µM
[2] = target: Ephrin type-A receptor 7 (Homo sapiens) (UniProt Q15375); settings: at 10 µM
[3] = target: T1, cAMP-dependent protein kinase catalytic subunit PRKX (Homo sapiens) (UniProt P51817); settings: at 10 µM
T1 sequence (whole entry): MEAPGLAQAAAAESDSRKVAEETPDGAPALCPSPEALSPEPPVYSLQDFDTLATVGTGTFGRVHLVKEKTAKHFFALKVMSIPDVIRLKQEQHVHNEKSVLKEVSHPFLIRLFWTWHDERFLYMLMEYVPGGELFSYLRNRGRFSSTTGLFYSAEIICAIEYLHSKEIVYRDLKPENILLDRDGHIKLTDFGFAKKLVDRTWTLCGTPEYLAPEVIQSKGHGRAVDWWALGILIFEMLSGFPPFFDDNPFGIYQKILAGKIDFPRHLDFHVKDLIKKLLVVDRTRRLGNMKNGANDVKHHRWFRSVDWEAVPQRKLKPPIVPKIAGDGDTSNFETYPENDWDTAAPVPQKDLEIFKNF

[4] = target: T2, Serine/threonine-protein kinase D3 (Homo sapiens) (UniProt O94806); assay: Selectivity interaction (ProQinase) EUB0000171b PRKD3
T2 sequence (whole entry): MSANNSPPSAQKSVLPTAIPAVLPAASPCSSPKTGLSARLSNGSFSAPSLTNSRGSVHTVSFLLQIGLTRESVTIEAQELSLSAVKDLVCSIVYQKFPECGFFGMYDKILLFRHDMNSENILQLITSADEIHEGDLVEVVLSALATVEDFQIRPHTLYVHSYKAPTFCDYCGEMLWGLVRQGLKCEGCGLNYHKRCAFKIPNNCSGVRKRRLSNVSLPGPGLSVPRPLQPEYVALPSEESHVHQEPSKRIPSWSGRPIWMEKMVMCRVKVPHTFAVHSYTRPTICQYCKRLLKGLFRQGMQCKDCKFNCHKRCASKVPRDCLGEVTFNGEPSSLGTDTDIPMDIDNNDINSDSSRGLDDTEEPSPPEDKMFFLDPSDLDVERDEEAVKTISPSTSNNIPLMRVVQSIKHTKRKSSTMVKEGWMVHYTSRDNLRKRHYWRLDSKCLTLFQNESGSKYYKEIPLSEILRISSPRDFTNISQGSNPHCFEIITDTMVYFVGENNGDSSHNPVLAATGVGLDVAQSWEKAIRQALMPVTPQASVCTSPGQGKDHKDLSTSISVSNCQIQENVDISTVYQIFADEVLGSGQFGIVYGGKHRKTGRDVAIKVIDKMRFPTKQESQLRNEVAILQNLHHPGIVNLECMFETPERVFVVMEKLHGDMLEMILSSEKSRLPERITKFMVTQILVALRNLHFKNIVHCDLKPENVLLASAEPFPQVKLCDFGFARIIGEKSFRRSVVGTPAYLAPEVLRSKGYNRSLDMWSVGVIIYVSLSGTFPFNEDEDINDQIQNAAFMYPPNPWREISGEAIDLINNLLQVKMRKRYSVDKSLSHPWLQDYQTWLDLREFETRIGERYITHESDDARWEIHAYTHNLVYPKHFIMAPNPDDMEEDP

[5] = target: T3, Serine/threonine-protein kinase Sgk3 (Homo sapiens) (UniProt Q96BR1); assay: Selectivity interaction (KinomeScan (DiscoverX)) EUB0000092b SGK3; settings: at 10 µM
T3 sequence (whole entry): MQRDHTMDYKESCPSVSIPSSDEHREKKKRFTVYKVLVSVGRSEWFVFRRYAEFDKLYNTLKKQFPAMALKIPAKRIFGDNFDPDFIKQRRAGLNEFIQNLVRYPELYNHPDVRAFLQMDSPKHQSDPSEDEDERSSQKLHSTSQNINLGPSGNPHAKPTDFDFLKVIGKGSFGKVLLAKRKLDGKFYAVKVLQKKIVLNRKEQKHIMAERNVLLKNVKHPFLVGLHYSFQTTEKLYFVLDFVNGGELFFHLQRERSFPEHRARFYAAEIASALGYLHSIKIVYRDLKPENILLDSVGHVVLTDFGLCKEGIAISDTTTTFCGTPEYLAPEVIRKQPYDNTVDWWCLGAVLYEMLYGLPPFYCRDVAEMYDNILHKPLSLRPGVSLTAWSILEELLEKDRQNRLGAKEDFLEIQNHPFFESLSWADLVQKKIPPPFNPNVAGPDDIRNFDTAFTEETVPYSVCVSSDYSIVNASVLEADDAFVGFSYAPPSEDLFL

[6] = target: T4, Tyrosine-protein kinase JAK3 (Homo sapiens) (UniProt P52333); assay: Selectivity interaction (KinomeScan (DiscoverX)) EUB0000607a JAK3; settings: at 10 µM
T4 sequence (whole entry): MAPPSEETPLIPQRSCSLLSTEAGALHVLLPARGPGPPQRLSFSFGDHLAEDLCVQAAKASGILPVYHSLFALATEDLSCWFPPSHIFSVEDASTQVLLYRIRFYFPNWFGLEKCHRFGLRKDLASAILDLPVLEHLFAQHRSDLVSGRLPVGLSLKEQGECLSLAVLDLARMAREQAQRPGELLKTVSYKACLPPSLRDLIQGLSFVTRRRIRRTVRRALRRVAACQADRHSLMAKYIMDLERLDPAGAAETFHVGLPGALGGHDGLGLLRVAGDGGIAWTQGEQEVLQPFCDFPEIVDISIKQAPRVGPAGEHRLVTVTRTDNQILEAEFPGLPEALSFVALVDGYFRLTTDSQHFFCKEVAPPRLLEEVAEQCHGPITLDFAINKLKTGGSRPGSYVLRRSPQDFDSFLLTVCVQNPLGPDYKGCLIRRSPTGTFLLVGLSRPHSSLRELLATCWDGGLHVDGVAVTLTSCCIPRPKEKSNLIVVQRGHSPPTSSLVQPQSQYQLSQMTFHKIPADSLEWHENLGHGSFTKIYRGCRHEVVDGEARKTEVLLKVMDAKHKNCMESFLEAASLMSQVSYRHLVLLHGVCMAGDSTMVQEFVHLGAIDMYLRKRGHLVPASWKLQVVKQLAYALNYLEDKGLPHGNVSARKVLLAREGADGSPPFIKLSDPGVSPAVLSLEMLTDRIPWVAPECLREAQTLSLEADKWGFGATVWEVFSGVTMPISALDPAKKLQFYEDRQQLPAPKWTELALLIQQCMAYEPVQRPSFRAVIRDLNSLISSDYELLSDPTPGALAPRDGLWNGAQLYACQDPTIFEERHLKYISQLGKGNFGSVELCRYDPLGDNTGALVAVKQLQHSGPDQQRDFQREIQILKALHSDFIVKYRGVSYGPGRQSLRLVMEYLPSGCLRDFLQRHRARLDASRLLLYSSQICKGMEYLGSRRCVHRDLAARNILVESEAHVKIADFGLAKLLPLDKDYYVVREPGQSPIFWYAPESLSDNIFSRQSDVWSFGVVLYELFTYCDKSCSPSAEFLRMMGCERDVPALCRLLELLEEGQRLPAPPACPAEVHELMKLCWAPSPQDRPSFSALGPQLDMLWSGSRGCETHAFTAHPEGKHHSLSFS

Ephrin type-A receptor 7 (Homo sapiens), sequence (Q15375 28-998 limits assumed): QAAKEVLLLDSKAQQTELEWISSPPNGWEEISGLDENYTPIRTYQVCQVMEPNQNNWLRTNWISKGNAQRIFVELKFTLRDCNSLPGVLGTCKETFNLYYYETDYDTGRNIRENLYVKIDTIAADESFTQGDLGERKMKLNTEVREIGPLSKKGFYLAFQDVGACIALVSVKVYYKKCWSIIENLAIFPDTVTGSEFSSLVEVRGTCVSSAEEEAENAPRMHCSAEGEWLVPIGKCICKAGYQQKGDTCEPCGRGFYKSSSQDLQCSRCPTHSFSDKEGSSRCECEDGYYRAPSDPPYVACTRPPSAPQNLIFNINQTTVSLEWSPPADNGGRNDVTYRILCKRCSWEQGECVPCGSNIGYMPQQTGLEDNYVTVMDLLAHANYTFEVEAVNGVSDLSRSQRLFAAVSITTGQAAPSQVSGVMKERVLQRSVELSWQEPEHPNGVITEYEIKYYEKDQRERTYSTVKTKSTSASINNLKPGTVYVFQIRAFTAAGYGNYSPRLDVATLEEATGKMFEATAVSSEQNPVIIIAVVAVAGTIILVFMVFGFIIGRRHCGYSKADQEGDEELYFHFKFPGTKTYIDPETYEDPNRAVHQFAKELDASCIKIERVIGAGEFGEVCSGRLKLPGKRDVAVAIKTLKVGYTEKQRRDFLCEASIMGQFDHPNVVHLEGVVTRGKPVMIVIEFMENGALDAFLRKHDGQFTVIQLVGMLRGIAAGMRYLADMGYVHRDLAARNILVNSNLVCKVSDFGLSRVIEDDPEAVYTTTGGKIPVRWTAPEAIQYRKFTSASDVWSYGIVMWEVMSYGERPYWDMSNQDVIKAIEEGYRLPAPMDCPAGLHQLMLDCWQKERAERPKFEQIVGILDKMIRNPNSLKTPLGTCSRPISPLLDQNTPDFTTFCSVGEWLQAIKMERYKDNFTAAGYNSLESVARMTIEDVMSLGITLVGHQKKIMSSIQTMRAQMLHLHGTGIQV
Mast/stem cell growth factor receptor Kit, sequence (P10721 whole entry): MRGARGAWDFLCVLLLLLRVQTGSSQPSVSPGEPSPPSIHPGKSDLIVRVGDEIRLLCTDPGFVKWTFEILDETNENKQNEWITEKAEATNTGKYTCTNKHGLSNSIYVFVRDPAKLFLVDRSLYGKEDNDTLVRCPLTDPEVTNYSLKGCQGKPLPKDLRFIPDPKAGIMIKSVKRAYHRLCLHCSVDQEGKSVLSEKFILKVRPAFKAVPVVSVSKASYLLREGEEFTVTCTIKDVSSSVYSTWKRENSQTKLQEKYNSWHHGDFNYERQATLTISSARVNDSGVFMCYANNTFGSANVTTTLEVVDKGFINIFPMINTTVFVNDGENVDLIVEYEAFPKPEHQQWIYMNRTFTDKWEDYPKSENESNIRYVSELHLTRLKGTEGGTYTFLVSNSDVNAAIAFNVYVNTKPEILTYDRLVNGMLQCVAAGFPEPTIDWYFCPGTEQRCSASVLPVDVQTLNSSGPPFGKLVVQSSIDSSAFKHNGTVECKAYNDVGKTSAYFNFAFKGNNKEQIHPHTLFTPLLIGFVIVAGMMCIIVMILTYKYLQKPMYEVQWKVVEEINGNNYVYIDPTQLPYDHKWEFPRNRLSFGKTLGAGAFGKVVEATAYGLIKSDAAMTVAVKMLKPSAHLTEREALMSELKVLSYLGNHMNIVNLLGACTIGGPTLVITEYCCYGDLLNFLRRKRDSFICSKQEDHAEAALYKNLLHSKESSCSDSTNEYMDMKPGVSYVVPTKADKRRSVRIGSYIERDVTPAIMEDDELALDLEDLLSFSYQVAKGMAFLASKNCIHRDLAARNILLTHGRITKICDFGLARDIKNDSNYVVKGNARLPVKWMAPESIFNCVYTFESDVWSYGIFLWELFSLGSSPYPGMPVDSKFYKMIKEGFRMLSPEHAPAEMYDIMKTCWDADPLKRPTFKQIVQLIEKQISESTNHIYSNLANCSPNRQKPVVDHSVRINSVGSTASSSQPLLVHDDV

SMILES: Cc1cc([C@@H](C)Nc2ccccc2C(=O)O)c2nc(N3CCOCC3)cc(=O)n2c1 [AZD-6482]
% of control [1]: 91% | % of control [2]: 89%

SMILES: COCC(=O)NC/C=C/c1ccc2ncnc(Nc3ccc(Oc4ccc(C)nc4)c(C)c3)c2c1 [CP-724714]
% of control [3]: 100%

% of control ([4]; at 1 µM): 44% | % of control ([4]; at 5 µM): 15%
SMILES: C=CC(=O)Nc1cccc(C(=O)Nc2ccc(Nc3cc(-c4[nH]c(SC)nc4C)ccn3)cc2)c1

SMILES: CCC(=O)N1CCN(c2ccc(-n3c(=O)ccc4cnc5ccc(-c6cnc7ccccc7c6)cc5c43)cc2C(F)(F)F)CC1
% of control [5]: 100%

SMILES: CNC(=O)Nc1ccc(-c2nc(N3CC4CCC(C3)O4)c3cnn(C4CCC5(CC4)OCCO5)c3n2)cc1
% of control [6]: 90%
